Test results published in the CheMixHub viscosity set.
± gives the uncertainty stated by the source.

Test: xn = mol fraction of the nth substance listed

BrC(Br)Br + CCOC(C)=O
viscosity [mPa·s]
Settings | x1 = 0.2695 | x1 = 0.2713 | x1 = 0.5228 | x1 = 0.529 | x1 = 0.7671 | x1 = 0.7683
298 K, 101.3 kPa | – | 0.754 ± 0.01 | – | 1.141 ± 0.015 | – | 1.565 ± 0.02
318 K, 101.33 kPa | 0.6005 ± 0.039 | – | 0.8779 ± 0.039 | – | 1.179 ± 0.039 | –

CCCCCCCCO + CCCCO
viscosity [mPa·s], 101 kPa
Settings | 298.15 K | 308.15 K | 318.15 K
x2 = 0.05 | 7.06 ± 0.068 | 5.06 ± 0.049 | 3.734 ± 0.035
x2 = 0.1 | 6.764 ± 0.065 | 4.867 ± 0.047 | 3.602 ± 0.034
x2 = 0.15 | 6.475 ± 0.062 | 4.678 ± 0.045 | 3.472 ± 0.032
x2 = 0.2 | 6.193 ± 0.059 | 4.492 ± 0.043 | 3.345 ± 0.031
x2 = 0.25 | 5.917 ± 0.057 | 4.309 ± 0.041 | 3.22 ± 0.03
x2 = 0.3 | 5.646 ± 0.054 | 4.129 ± 0.039 | 3.097 ± 0.029
x2 = 0.35 | 5.382 ± 0.051 | 3.953 ± 0.037 | 2.975 ± 0.027
x2 = 0.4 | 5.123 ± 0.049 | 3.779 ± 0.035 | 2.855 ± 0.026
x2 = 0.45 | 4.87 ± 0.046 | 3.608 ± 0.034 | 2.736 ± 0.025
x2 = 0.5 | 4.622 ± 0.044 | 3.44 ± 0.032 | 2.618 ± 0.024
x2 = 0.55 | 4.38 ± 0.041 | 3.275 ± 0.03 | 2.502 ± 0.023
x2 = 0.6 | 4.145 ± 0.039 | 3.113 ± 0.029 | 2.388 ± 0.022
x2 = 0.65 | 3.915 ± 0.036 | 2.955 ± 0.027 | 2.275 ± 0.021
x2 = 0.7 | 3.692 ± 0.034 | 2.8 ± 0.025 | 2.164 ± 0.019
x2 = 0.75 | 3.476 ± 0.032 | 2.649 ± 0.024 | 2.055 ± 0.018
x2 = 0.8 | 3.268 ± 0.03 | 2.502 ± 0.023 | 1.948 ± 0.017
x2 = 0.85 | 3.067 ± 0.028 | 2.36 ± 0.021 | 1.845 ± 0.017
x2 = 0.9 | 2.875 ± 0.026 | 2.223 ± 0.02 | 1.744 ± 0.016
x2 = 0.95 | 2.693 ± 0.024 | 2.092 ± 0.019 | 1.648 ± 0.015

C=Cc1ccccc1 + CS(C)=O
viscosity [mPa·s], 101.33 kPa
Settings | x1 = 0.1017 | x1 = 0.2022 | x1 = 0.3096 | x1 = 0.3987 | x1 = 0.501 | x1 = 0.6007 | x1 = 0.6968 | x1 = 0.801 | x1 = 0.896
298.15 K | 1.642 ± 0.011 | 1.475 ± 0.01 | 1.326 ± 0.009 | 1.237 ± 0.008 | 1.139 ± 0.008 | 1.058 ± 0.007 | 0.982 ± 0.007 | 0.887 ± 0.006 | 0.802 ± 0.005
303.15 K | 1.482 ± 0.01 | 1.343 ± 0.009 | 1.191 ± 0.008 | 1.112 ± 0.007 | 1.044 ± 0.007 | 0.976 ± 0.007 | 0.91 ± 0.006 | 0.827 ± 0.006 | 0.749 ± 0.005
308.15 K | 1.335 ± 0.009 | 1.204 ± 0.008 | 1.083 ± 0.007 | 1.014 ± 0.007 | 0.957 ± 0.007 | 0.899 ± 0.006 | 0.837 ± 0.006 | 0.763 ± 0.005 | 0.7 ± 0.005

CCCCCCCCO + CO
viscosity [mPa·s], 101 kPa
Settings | 298.15 K | 308.15 K | 318.15 K
x2 = 0.05 | 6.856 ± 0.066 | 4.941 ± 0.047 | 3.665 ± 0.034
x2 = 0.1 | 6.367 ± 0.061 | 4.633 ± 0.044 | 3.463 ± 0.032
x2 = 0.15 | 5.895 ± 0.056 | 4.331 ± 0.04 | 3.263 ± 0.03
x2 = 0.2 | 5.44 ± 0.051 | 4.035 ± 0.037 | 3.065 ± 0.028
x2 = 0.25 | 5.002 ± 0.047 | 3.746 ± 0.034 | 2.87 ± 0.026
x2 = 0.3 | 4.581 ± 0.043 | 3.464 ± 0.031 | 2.676 ± 0.024
x2 = 0.35 | 4.176 ± 0.038 | 3.189 ± 0.029 | 2.485 ± 0.022
x2 = 0.4 | 3.789 ± 0.034 | 2.921 ± 0.026 | 2.296 ± 0.02
x2 = 0.45 | 3.418 ± 0.031 | 2.661 ± 0.024 | 2.11 ± 0.018
x2 = 0.5 | 3.064 ± 0.027 | 2.41 ± 0.021 | 1.927 ± 0.017
x2 = 0.55 | 2.727 ± 0.024 | 2.166 ± 0.019 | 1.748 ± 0.015
x2 = 0.6 | 2.408 ± 0.021 | 1.933 ± 0.017 | 1.573 ± 0.014
x2 = 0.65 | 2.106 ± 0.018 | 1.708 ± 0.015 | 1.403 ± 0.012
x2 = 0.7 | 1.823 ± 0.016 | 1.495 ± 0.013 | 1.239 ± 0.011
x2 = 0.75 | 1.559 ± 0.013 | 1.292 ± 0.011 | 1.081 ± 0.0094
x2 = 0.8 | 1.314 ± 0.011 | 1.101 ± 0.0095 | 0.9299 ± 0.0081
x2 = 0.85 | 1.089 ± 0.0093 | 0.9227 ± 0.008 | 0.787 ± 0.007
x2 = 0.9 | 0.8845 ± 0.0077 | 0.7578 ± 0.0067 | 0.6532 ± 0.0059
x2 = 0.95 | 0.7018 ± 0.0062 | 0.6071 ± 0.0055 | 0.5296 ± 0.0049

CCCCCCCCO + NCCO
viscosity [mPa·s], 101.3 kPa
Settings | x2 = 0.1 | x2 = 0.2 | x2 = 0.3 | x2 = 0.4 | x2 = 0.5 | x2 = 0.6 | x2 = 0.7 | x2 = 0.8 | x2 = 0.9
303.15 K | 6.48 ± 0.11 | 6.8 ± 0.12 | 7.36 ± 0.13 | 8.14 ± 0.14 | 9.01 ± 0.16 | 9.97 ± 0.18 | 11 ± 0.2 | 12.1 ± 0.2 | 13.4 ± 0.2
313.15 K | 4.68 ± 0.08 | 4.93 ± 0.09 | 5.28 ± 0.09 | 5.77 ± 0.1 | 6.27 ± 0.11 | 6.83 ± 0.12 | 7.48 ± 0.13 | 8.16 ± 0.14 | 8.98 ± 0.16
323.15 K | 3.49 ± 0.06 | 3.68 ± 0.07 | 3.92 ± 0.07 | 4.23 ± 0.08 | 4.55 ± 0.08 | 4.9 ± 0.09 | 5.34 ± 0.1 | 5.79 ± 0.1 | 6.29 ± 0.11

[Cl-].[Rb+] + O
310.15 K, 101 kPa
Settings | viscosity [mPa·s]
x1 = 0.000184 | 0.6947 ± 0.0061
x1 = 0.000842 | 0.6943 ± 0.0061
x1 = 0.002695 | 0.6937 ± 0.0062
x1 = 0.003302 | 0.6937 ± 0.0062
x1 = 0.003679 | 0.6938 ± 0.0062
x1 = 0.005197 | 0.6944 ± 0.0063
x1 = 0.005988 | 0.695 ± 0.0063

C=Cc1ccccc1 + CCO
viscosity [mPa·s], 101.33 kPa
Settings | x1 = 0.0997 | x1 = 0.1994 | x1 = 0.3013 | x1 = 0.3987 | x1 = 0.5004 | x1 = 0.6011 | x1 = 0.7001 | x1 = 0.7976 | x1 = 0.8989
298.15 K | 1.01 ± 0.05 | 0.932 ± 0.046 | 0.849 ± 0.043 | 0.798 ± 0.041 | 0.764 ± 0.039 | 0.747 ± 0.038 | 0.737 ± 0.038 | 0.731 ± 0.038 | 0.72 ± 0.037
303.15 K | 0.93 ± 0.046 | 0.861 ± 0.043 | 0.777 ± 0.04 | 0.735 ± 0.038 | 0.711 ± 0.037 | 0.701 ± 0.037 | 0.693 ± 0.036 | 0.688 ± 0.036 | 0.679 ± 0.036
308.15 K | 0.848 ± 0.043 | 0.786 ± 0.04 | 0.711 ± 0.037 | 0.681 ± 0.036 | 0.661 ± 0.035 | 0.652 ± 0.034 | 0.645 ± 0.034 | 0.64 ± 0.034 | 0.634 ± 0.034

CCCCCCCCO + CCCCCC
298.15 K, 101.33 kPa
Settings | viscosity [mPa·s]
x2 = 0.1657 | 4.313 ± 0.032
x2 = 0.2119 | 3.677 ± 0.028
x2 = 0.274 | 2.968 ± 0.023
x2 = 0.3717 | 2.093 ± 0.016
x2 = 0.4775 | 1.432 ± 0.012
x2 = 0.5556 | 1.096 ± 0.009
x2 = 0.6659 | 0.759 ± 0.007
x2 = 0.7638 | 0.559 ± 0.005
x2 = 0.8406 | 0.443 ± 0.004
x2 = 0.9211 | 0.35 ± 0.004
x2 = 0.9597 | 0.319 ± 0.004

CC(=O)c1ccc(Cl)cc1 + C=CC#N
308.15 K, 101 kPa
Settings | viscosity [mPa·s]
x1 = 0.0547 | 0.3753 ± 0.0041
x1 = 0.1146 | 0.4278 ± 0.0045
x1 = 0.1793 | 0.4934 ± 0.0051
x1 = 0.2555 | 0.5751 ± 0.0058
x1 = 0.3377 | 0.6821 ± 0.0067
x1 = 0.4269 | 0.819 ± 0.0079
x1 = 0.5441 | 1.026 ± 0.0097
x1 = 0.6719 | 1.303 ± 0.012
x1 = 0.8213 | 1.697 ± 0.015
